Experimental data published in patent US12383653B2, “Neutral multidomain peptide hydrogels and uses thereof” (William Marsh Rice University, priority 2018, dated 2025).
“Also recorded” adds a separate entry of the source. Where a SMILES comes first, the peptide text is derived from it. [ ]: non-standard residue; d: D form. Hyp = O=C(O)[C@@H]1C[C@@H](O)CN1

Legend:
[1] = Hydrogel formation (inverted-vial test, pH, ionic strength, buffers); format: physicochemical; conditions: for hydrogel formation at acidic, neutral and basic pH: 1% by weight, pH adjusted with HCl or NaOH, inverted-vial test / CD
Experimental: Hydrogel Formation. Peptide solutions of O5 were prepared at 1% by weight (4.2 mM) in 149 mM sucrose and 0.5×HBSS. This buffer system was chosen to be consistent with prior MDP experiments and find optimum gelling conditions for future in vivo and in vitro work. Peptide solutions were sonicated using a Microson Ultrasonic Cell Disruptor with a 2 mm microprobe. The instrument frequency was 22.5 kHz and a power output up to 10 watts (RMS) was used. Solutions were sonicated at room temperature for 1 or 10 cycles, where each cycle consisted of 10 pulses and 1 min relaxation time between cycles. For the study of hydrogelation of O5, K2 and E2 at different pH values and ionic strength, 1% by weight peptide solutions were prepared in deionized water, PBS, or HBSS. pH was adjusted using HCl or NaOH 0.1 M solutions.

[2] = tested on: NIH-3T3 fibroblasts; assay: 3D culture cytocompatibility, Calcein AM / Ethidium homodimer-1 viability and cell morphology; format: cell-based
Experimental: (§1) Cytocompatibility and cell viability studies. All cell culture materials, not otherwise specified, were purchased from Gibco, Life Technologies. NIH-3T3 fibroblast cells were cultured in Dulbecco's Modified Eagle Medium (DMEM) supplemented with 10% Fetal Bovine Serum (FBS), 2% L-glutamine (200 mM), 1% sodium pyruvate (100 mM), and 1% pen-strep solution (5000 units/mL of penicillin and 5 mg/mL of streptomycin, Sigma-Aldrich, St. Louis, MO). Cells were maintained at 37° C. and 5% CO2 with humidity and split when reaching 80%-90% confluency by treatment with 0.25% trypsin-EDTA and neutralization with complete media. Cells were centrifuged for 6 min at 1600 rpm, then the cell pellet was dispersed in HBSS, counted and adjusted to the required concentration. 3D cell culture in K2 hydrogel was achieved by mixing a 2% by weight peptide stock solution in 298 mM sucrose with a cell suspension of 2×10^6 cells/mL in HBSS. The final concentration was 1% by weight K2 hydrogel in 149 mM sucrose and 0.5×HBSS with 1×10^6 cells/mL. For O5 peptide, hydrogel was prepared by sonication using only 90% of the required 149 mM sucrose-0.5×HBSS to obtain a 1% by weight concentration, the remaining 10% was added as a cell suspension, and mixed by pipetting into the gel to obtain a final concentration of 1×10^6 cells/mL evenly distributed though the volume of the hydrogel. 70 μL of seeded hydrogels were cultured in a Lab-Tek 16-well glass chamber ([…], Thermo Fisher, Rochester, NY) with 200 μL of medium and fed every 2 days by replacing 100 μL with fresh media. Cell viability was analyzed using a live/dead viability kit (Invitrogen, Thermo Fisher, Carlsbad, CA). At specific time points, the medium was removed, and gels were rinsed with 1×PBS, then 100 μL of staining solution containing 2 μM Calcein AM and 4 μM Ethidium homodimer-1 in DPBS were added. Cells were incubated from 15 to 30 min and imaged using a Nikon A1 Rsi fluorescent confocal microscope (Nikon Instruments, Tokyo, Japan). Three z-stack images of 100 μm deep per sample were taken at 20× using a 488 nm green channel and 561 nm red channel lasers. Images were processed with NIS Element and live/dead cell counting was performed on Imaris 3D/4D Image Processing software (Bitplane, Concord, MA).
(§2) To evaluate the cell morphology, hydrogels were rinsed with PBS and fixed with 10% buffered formalin for 30 min Cells were treated with 0.5% Triton X for 10 min and 100 mM glycine for 10 min, followed by 10% Bovine Serum Albumin (BSA) in HBSS block solution. Then cells were stained for filamentous actin with Alexa Fluor® 488-Phalloidin and for the nuclei with ProLong® Gold Antifade DAPI mounting media. Cell in the hydrogels were analyzed by confocal microscopy using a 40× water objective and processed as described.

[3] = as above; format: cell-based; conditions: mouse; day 1 after encapsulation, 1 wt.% hydrogel; read-out: percentage of viable cells
Experimental: as §1, §2

[4] = Secondary structure estimation from circular dichroism in TFE, least square linear method; format: physicochemical; conditions: TFE at 25° C., 1 wt.%
Experimental: Circular Dichroism (CD) spectroscopy. For secondary structure characterization, peptide solutions of 1% by weight (molar concentration is included in Table 2) were prepared in 2,2,2-trifluoroethanol (TFE, Sigma Aldrich, St. Louis, MO). CD spectra acquisition was performed in a CD Jasco J-810 spectropolarimeter (Jasco Inc., Easton, MD) using a 0.01 mm cuvette. Data were collected at room temperature from 180 to 250 nm at a speed of 50 nm/min, with a 0.1 nm data pitch and the spectra were averaged over 5 scans. To study the hydrogelation of O5, 1% by weight peptide solutions were made in 149 mM sucrose solution in 0.5× Hank's Balanced Salt Solution (HBSS, Life Technologies) and analyzed as previously described.
To estimate the secondary structure of O peptide series, data fitting using the least square linear method was performed in MATLAB (Mathworks, Natick, MA). (Hyp)6, O1(SL)6O1 and K2(SL)6K2 were used as basis spectra for polyproline type II, β-sheet and α-helix, respectively (FIG. 7).

[5] = Solubility of peptides in water; format: physicochemical

| Compound | % PPII [4] | % α-helix [4] | % β-sheet [4] | Predominant Structure [4] | solubility [5] | also measured |
| --- | --- | --- | --- | --- | --- | --- |
| CC(=O)N[C@@H](CCCCN)C(=O)N[C@@H](CCCCN)C(=O)N[C@@H](CO)C(=O)N[C@@H](CC(C)C)C(=O)N[C@@H](CO)C(=O)N[C@@H](CC(C)C)C(=O)N[C@@H](CO)C(=O)N[C@@H](CC(C)C)C(=O)N[C@@H](CO)C(=O)N[C@@H](CC(C)C)C(=O)N[C@@H](CO)C(=O)N[C@@H](CC(C)C)C(=O)N[C@@H](CO)C(=O)N[C@@H](CC(C)C)C(=O)N[C@@H](CCCCN)C(=O)N[C@@H](CCCCN)C(N)=O [Peptide K2, Ac-KKSLSLSLSLSLSLKK-CONH2, reference compound] |  |  |  |  |  | hydrogel formation at acidic, neutral and basic pH [1]: dependent on pH; also recorded: forms a gel at pH 11; hydrogel formation at acidic, neutral and basic pH ([1]; listed as K2(SL)6K2): gels only forming at neutral pH or at elevated ionic strength; percentage of viable cells ([2]; day 3 compared with day 1): relatively unchanged; cytotoxicity / viability over the culture ([2]; days 1 to 5, 1 wt.% hydrogel): somewhat cytotoxic during the first days of cell culture; cell proliferation / viable cell density in the gel ([2]; up to day 5): by day 5 cell density is significantly higher than days 1 and 3; viability at 24 h, 1 % by weight [3]: ~20% |
| CC(=O)N1C[C@H](O)C[C@H]1C(=O)N[C@@H](CO)C(=O)N[C@@H](CC(C)C)C(=O)N[C@@H](CO)C(=O)N[C@@H](CC(C)C)C(=O)N[C@@H](CO)C(=O)N[C@@H](CC(C)C)C(=O)N[C@@H](CO)C(=O)N[C@@H](CC(C)C)C(=O)N[C@@H](CO)C(=O)N[C@@H](CC(C)C)C(=O)N[C@@H](CO)C(=O)N[C@@H](CC(C)C)C(=O)N1C[C@H](O)C[C@H]1C(N)=O [Peptide O1, Ac-OSLSLSLSLSLSLO-CONH2] (Ac-[Hyp]SLSLSLSLSLSL[Hyp]-NH2) | 0% | 0% | 100% | β-sheet | < 500 µg/mL |  |
| CC(=O)N1C[C@H](O)C[C@H]1C(=O)N1C[C@H](O)C[C@H]1C(=O)N[C@@H](CO)C(=O)N[C@@H](CC(C)C)C(=O)N[C@@H](CO)C(=O)N[C@@H](CC(C)C)C(=O)N[C@@H](CO)C(=O)N[C@@H](CC(C)C)C(=O)N[C@@H](CO)C(=O)N[C@@H](CC(C)C)C(=O)N[C@@H](CO)C(=O)N[C@@H](CC(C)C)C(=O)N[C@@H](CO)C(=O)N[C@@H](CC(C)C)C(=O)N1C[C@H](O)C[C@H]1C(=O)N1C[C@H](O)C[C@H]1C(N)=O [Peptide O2, Ac-OOSLSLSLSLSLSLOO-CONH2] (Ac-[Hyp][Hyp]SLSLSLSLSLSL[Hyp][Hyp]-NH2) | 29.3% | 41.9% | 28.8% | α-helix | < 500 µg/mL |  |
| CC(=O)N1C[C@H](O)C[C@H]1C(=O)N1C[C@H](O)C[C@H]1C(=O)N1C[C@H](O)C[C@H]1C(=O)N[C@@H](CO)C(=O)N[C@@H](CC(C)C)C(=O)N[C@@H](CO)C(=O)N[C@@H](CC(C)C)C(=O)N[C@@H](CO)C(=O)N[C@@H](CC(C)C)C(=O)N[C@@H](CO)C(=O)N[C@@H](CC(C)C)C(=O)N[C@@H](CO)C(=O)N[C@@H](CC(C)C)C(=O)N[C@@H](CO)C(=O)N[C@@H](CC(C)C)C(=O)N1C[C@H](O)C[C@H]1C(=O)N1C[C@H](O)C[C@H]1C(=O)N1C[C@H](O)C[C@H]1C(N)=O [Peptide O3, Ac-OOOSLSLSLSLSLSLOOO-CONH2] (Ac-[Hyp][Hyp][Hyp]SLSLSLSLSLSL[Hyp][Hyp][Hyp]-NH2) | 38.4% | 36.4% | 25.2% | PPII/α-helix | < 500 µg/mL |  |
| CC(=O)N1C[C@H](O)C[C@H]1C(=O)N1C[C@H](O)C[C@H]1C(=O)N1C[C@H](O)C[C@H]1C(=O)N1C[C@H](O)C[C@H]1C(=O)N[C@@H](CO)C(=O)N[C@@H](CC(C)C)C(=O)N[C@@H](CO)C(=O)N[C@@H](CC(C)C)C(=O)N[C@@H](CO)C(=O)N[C@@H](CC(C)C)C(=O)N[C@@H](CO)C(=O)N[C@@H](CC(C)C)C(=O)N[C@@H](CO)C(=O)N[C@@H](CC(C)C)C(=O)N[C@@H](CO)C(=O)N[C@@H](CC(C)C)C(=O)N1C[C@H](O)C[C@H]1C(=O)N1C[C@H](O)C[C@H]1C(=O)N1C[C@H](O)C[C@H]1C(=O)N1C[C@H](O)C[C@H]1C(N)=O [Peptide O4, Ac-OOOOSLSLSLSLSLSLOOOO-CONH2] (Ac-[Hyp][Hyp][Hyp][Hyp]SLSLSLSLSLSL[Hyp][Hyp][Hyp][Hyp]-NH2) | 41.8% | 41.2% | 17% | PPII/α-helix | < 500 µg/mL |  |
| CC(=O)N1C[C@H](O)C[C@H]1C(=O)N1C[C@H](O)C[C@H]1C(=O)N1C[C@H](O)C[C@H]1C(=O)N1C[C@H](O)C[C@H]1C(=O)N1C[C@H](O)C[C@H]1C(=O)N1C[C@H](O)C[C@H]1C(=O)N[C@@H](CO)C(=O)N[C@@H](CC(C)C)C(=O)N[C@@H](CO)C(=O)N[C@@H](CC(C)C)C(=O)N[C@@H](CO)C(=O)N[C@@H](CC(C)C)C(=O)N[C@@H](CO)C(=O)N[C@@H](CC(C)C)C(=O)N[C@@H](CO)C(=O)N[C@@H](CC(C)C)C(=O)N[C@@H](CO)C(=O)N[C@@H](CC(C)C)C(=O)N1C[C@H](O)C[C@H]1C(=O)N1C[C@H](O)C[C@H]1C(=O)N1C[C@H](O)C[C@H]1C(=O)N1C[C@H](O)C[C@H]1C(=O)N1C[C@H](O)C[C@H]1C(=O)N1C[C@H](O)C[C@H]1C(N)=O [Peptide O6, Ac-OOOOOOSLSLSLSLSLSLOOOOOO-CONH2] (Ac-[Hyp][Hyp][Hyp][Hyp][Hyp][Hyp]SLSLSLSLSLSL[Hyp][Hyp][Hyp][Hyp][Hyp][Hyp]-NH2) | 48.5% | 40.2% | 11.4% | PPII |  | state of the peptide at 10 mg/mL ([1]; 10 mg/mL): viscous solution; hydrogelation in cell culture media ([1]; 1% by weight in 149 mM sucrose and 0.5×HBSS, ultrasonication): dissolves to form a viscous solution |
| Ac-EESLSLSLSLSLSLEE-NH2 [Peptide E2, Ac-EESLSLSLSLSLSLEE-CONH2, reference compound] |  |  |  |  |  | hydrogel formation at acidic, neutral and basic pH [1]: dependent on pH; also recorded: forms a gel at acidic pH and undergoes phase separation; hydrogel formation at acidic, neutral and basic pH ([1]; listed as E2(SL)6E2): gels only forming at neutral pH or at elevated ionic strength |
